According to patent US20250109121A1, “POTENT AND SELECTIVE SMARCA2 DEGRADING CHIMERIC MOLECULES AS CANCER THERAPEUTICS” (BOARD OF REGENTS, THE UNIVERSITY OF TEXAS SYSTEM, priority 2021, published 2025):
Like-named read-outs stand apart in the source and are kept apart here.

Legend:
[1] = tested on: H2023; experiment: Cell proliferation (colony assay) IC50; type: cell-based; conditions: NCI-H2023; H2023, mutant SMARCA4
[2] = tested on: HCC2279; experiment: Cell proliferation (colony assay) IC50; type: cell-based; conditions: HCC2279, wild-type SMARCA4
[3] = target: T1, SMARCA2 (Homo sapiens, UniProt P51531); experiment: SMARCA2 degradation in cell lines, western blot; type: cell-based
[4] = target: T1, SMARCA2; experiment: Immunohistochemistry of SMARCA2 in H1299 xenograft tumors; type: in vivo; parameters: from tissue; host or cells: H1299 xenograft tumour tissue from female NCR Nude mice; conditions: NCR Nude mice, 200 mg/kg intraperitoneally once per day for four days
Description: NCR Nude mice were injected with vehicle or SMARCA2 degrader Compound 101 (200 mg/kg) once per day for four consecutive days intraperitoneally. Tumor tissues were harvested 24 hours after the last dose and fixed in formalin for 24 hours, paraffin embedded, sectioned and stained according to standard procedures. Briefly, endogenous peroxidases were inactivated by 3% hydrogen peroxide. Non-specific signals were blocked using 3% BSA, 10% goat serum in 0.1% Triton X-100. After antigen retrieval in citrate buffer, slides were stained overnight at 4° C. using SMARCA2 antibodies (Cell Signaling, D9E8B1:2000). After overnight incubation, the slides were washed and incubated with secondary antibody (HRP-polymers, Biocare Medical) for 30 min at room temperature. The slides were washed three times and stained with DAB substrate (ThermoFisher Scientific). The slides were then counterstained with haematoxylin and mounted with mounting medium. The slides were imaged by Vectra microscope and the signal intensity and percentage of cells positive for SMARCA2 was quantified using Vectra 3.0.7 software.

[5] = tested on: H1793; experiment: Cell proliferation (colony assay) IC50; type: cell-based; conditions: Homo sapiens, NCI-H1793; H1793, mutant SMARCA4
[6] = tested on: H441; experiment: Cell proliferation (colony assay) IC50; type: cell-based; conditions: Homo sapiens, NCI-H441; H441, wild-type SMARCA4
[7] = tested on: A549; experiment: Cell proliferation (colony assay) IC50; type: cell-based; conditions: Homo sapiens; A549, mutant SMARCA4

T1 sequence (P51531 whole entry): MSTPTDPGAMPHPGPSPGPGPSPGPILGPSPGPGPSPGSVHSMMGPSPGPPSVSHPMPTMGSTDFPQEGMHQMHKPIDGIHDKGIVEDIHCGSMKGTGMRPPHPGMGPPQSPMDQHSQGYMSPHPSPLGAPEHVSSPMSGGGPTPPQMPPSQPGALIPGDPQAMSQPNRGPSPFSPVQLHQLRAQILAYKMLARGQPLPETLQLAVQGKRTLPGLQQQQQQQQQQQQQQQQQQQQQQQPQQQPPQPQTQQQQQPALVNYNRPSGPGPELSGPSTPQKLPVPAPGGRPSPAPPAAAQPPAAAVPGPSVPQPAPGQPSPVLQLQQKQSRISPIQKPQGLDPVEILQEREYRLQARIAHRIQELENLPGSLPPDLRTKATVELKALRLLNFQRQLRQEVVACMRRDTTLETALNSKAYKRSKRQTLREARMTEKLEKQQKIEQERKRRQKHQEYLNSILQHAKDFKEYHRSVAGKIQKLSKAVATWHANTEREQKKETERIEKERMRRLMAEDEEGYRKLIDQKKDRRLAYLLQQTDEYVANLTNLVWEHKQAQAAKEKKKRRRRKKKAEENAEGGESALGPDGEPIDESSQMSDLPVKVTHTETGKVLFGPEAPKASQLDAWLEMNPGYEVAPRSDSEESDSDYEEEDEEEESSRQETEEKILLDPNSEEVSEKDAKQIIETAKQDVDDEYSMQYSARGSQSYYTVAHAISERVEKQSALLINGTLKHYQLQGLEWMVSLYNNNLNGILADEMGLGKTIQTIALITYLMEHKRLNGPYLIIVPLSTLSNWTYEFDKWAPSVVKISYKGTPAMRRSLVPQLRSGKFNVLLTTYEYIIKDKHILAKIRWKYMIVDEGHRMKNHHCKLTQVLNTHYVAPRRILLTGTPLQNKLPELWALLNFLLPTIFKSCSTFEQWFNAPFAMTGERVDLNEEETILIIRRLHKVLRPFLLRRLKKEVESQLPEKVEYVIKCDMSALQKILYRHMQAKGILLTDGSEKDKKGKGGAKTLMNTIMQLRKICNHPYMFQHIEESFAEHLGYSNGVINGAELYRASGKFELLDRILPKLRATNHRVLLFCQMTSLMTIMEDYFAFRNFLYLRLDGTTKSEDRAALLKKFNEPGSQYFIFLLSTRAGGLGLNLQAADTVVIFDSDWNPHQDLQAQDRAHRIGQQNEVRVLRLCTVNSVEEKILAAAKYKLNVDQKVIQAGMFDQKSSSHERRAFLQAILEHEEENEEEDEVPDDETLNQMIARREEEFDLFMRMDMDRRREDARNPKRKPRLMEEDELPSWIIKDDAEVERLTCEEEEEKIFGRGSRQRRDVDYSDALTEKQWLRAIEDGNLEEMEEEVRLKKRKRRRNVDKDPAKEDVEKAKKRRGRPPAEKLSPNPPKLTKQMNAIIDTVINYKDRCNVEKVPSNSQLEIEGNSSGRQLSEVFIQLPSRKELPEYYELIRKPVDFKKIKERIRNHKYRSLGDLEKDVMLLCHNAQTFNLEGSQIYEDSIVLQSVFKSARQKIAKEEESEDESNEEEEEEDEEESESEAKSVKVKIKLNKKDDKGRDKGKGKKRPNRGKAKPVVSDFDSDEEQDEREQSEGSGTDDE

Question: What does the source list for `Nc1nnc(-c2ccccc2O)cc1N1CCN(Cc2ccc(OCCOCCNc3cccc4c3C(=O)N(C3CCC(=O)NC3=O)C4=O)c(F)c2)CC1` (stereo not shown) [Compound 101]?
Answer: IC50 [1]: 483 nM; IC50 [2]: > 10000 nM; Dmax ([3]; A549, A549, mutant SMARCA4 cell line, read-out: SMARCA2 Dmax (%)): 96%; DC50 ([3]; A549, mutant SMARCA4 cell line): 57 nM; DC50 ([3]; H322, mutant SMARCA4 cell line): 27 nM; DC50 ([3]; H838, mutant SMARCA4 cell line): 26 nM; DC50 ([3]; H1693, mutant SMARCA4 cell line): 113 nM; DC50 ([3]; H1793, mutant SMARCA4 cell line): 2 nM; DC50 ([3]; H2023, mutant SMARCA4 cell line): 42 nM; DC50 ([3]; H2126, mutant SMARCA4 cell line): 10 nM; DC50 ([3]; H2228, wild-type SMARCA4 cell line): 106 nM; DC50 ([3]; H2935, mutant SMARCA4 cell line): 8 nM; Dmax ([3]; H2935, mutant SMARCA4 cell line, read-out: SMARCA2 Dmax (%)): 83%; Dmax ([3]; HCC44, HCC44, wild-type SMARCA4 cell line, read-out: SMARCA2 Dmax (%)): 99%; DC50 ([3]; HCC44, wild-type SMARCA4 cell line): 69 nM; Dmax ([3]; HCC366, HCC366, mutant SMARCA4 cell line, read-out: SMARCA2 Dmax (%)): 99%; DC50 ([3]; HCC366, mutant SMARCA4 cell line): 13 nM; Dmax ([3]; HCC515, HCC515, mutant SMARCA4 cell line, read-out: SMARCA2 Dmax (%)): 81%; DC50 ([3]; HCC515, mutant SMARCA4 cell line): 83 nM; Dmax ([3]; HCC827, HCC827, wild-type SMARCA4 cell line, read-out: SMARCA2 Dmax (%)): 83%; DC50 ([3]; HCC827, wild-type SMARCA4 cell line): 70 nM; DC50 ([3]; HCC2279, wild-type SMARCA4 cell line): 32 nM; Dmax ([3]; HCC2279, wild-type SMARCA4 cell line, read-out: SMARCA2 Dmax (%)): 99%; DC50 ([3]; HOP62, wild-type SMARCA4 cell line): 33 nM; Dmax ([3]; HOP-62, HOP62, wild-type SMARCA4 cell line, read-out: SMARCA2 Dmax (%)): 99%; Dmax ([3]; NCI-H322, H322, mutant SMARCA4 cell line, read-out: SMARCA2 Dmax (%)): 99%; Dmax ([3]; NCI-H441, H441, wild-type SMARCA4 cell line, read-out: SMARCA2 Dmax (%)): 67%; Dmax ([3]; NCI-H838, H838, mutant SMARCA4 cell line, read-out: SMARCA2 Dmax (%)): 98%; Dmax ([3]; NCI-H1693, H1693, mutant SMARCA4 cell line, read-out: SMARCA2 Dmax (%)): 84%; Dmax ([3]; NCI-H1792, H1792, wild-type SMARCA4 cell line, read-out: SMARCA2 Dmax (%)): 89%; Dmax ([3]; NCI-H1793, H1793, mutant SMARCA4 cell line, read-out: SMARCA2 Dmax (%)): 99%; Dmax ([3]; NCI-H1975, H1975, wild-type SMARCA4 cell line, maximum degradation as percentage of DMSO control, read-out: SMARCA2 Dmax (%)): 93%; Dmax ([3]; NCI-H2023, H2023, mutant SMARCA4 cell line, read-out: SMARCA2 Dmax (%)): 99%; Dmax ([3]; NCI-H2122, H2122, wild-type SMARCA4 cell line, read-out: SMARCA2 Dmax (%)): 94%; Dmax ([3]; NCI-H2126, H2126, mutant SMARCA4 cell line, read-out: SMARCA2 Dmax (%)): 99%; Dmax ([3]; NCI-H2228, H2228, wild-type SMARCA4 cell line, read-out: SMARCA2 Dmax (%)): 82%; Dmax ([3]; mutant SMARCA4 cells (Table 5), read-out: SMARCA2 Dmax, span over cell lines): 81 to 99%; Dmax ([3]; wild-type SMARCA4 cells (Table 4), read-out: SMARCA2 Dmax, span over cell lines): 82 to 99%; SMARCA2 in tumor tissue by immunohistochemistry (in words) [4]: significant reduction in SMARCA2; reduction in the percentage of SMARCA2 positive cells ([4]; tumor harvested 24 hours after last dose, versus vehicle): more than 50%; IC50 [5]: 900 nM; IC50 [6]: > 10000 nM; IC50 [7]: > 10000 nM
